The values that follow are results of earlier work, collected in the CATMoS acute toxicity set (Mansouri et al. 2021).

This data set in a line: rat acute oral toxicity. Conditions: in vivo.
By LD50 is commonly meant the dose expected to kill half of the subjects tested. `COc1ccc2c(c1)c(CC(=O)OC(C)c1ccccc1)c(C)n2C(=O)c1ccc(Cl)cc1` (stereo not given): the 50% lethal dose (LD50) is 425 mg/kg.

In the case of `Cc1cc(=O)[nH]c(=S)[nH]1`, the LD50 was 1500 mg/kg.

`COc1ccc2c3c1O[C@H]1[C@@H](O)C=C[C@H]4[C@@H](C2)[N@@+](C)([O-])CC[C@@]341`: the LD50 was 1600 mg/kg.

For `COc1ccc2c3c1O[C@H]1C[C@@H](O)C=C[C@@]31CCN(C)C2`, the LD50 was 75 mg/kg.

With `N#C/C(=C1\SCC(c2ccccc2Cl)S1)n1ccnc1` (stereo not given), the LD50 was 652 mg/kg.

Consider `C=CC(=O)OCCOCCOC(=O)C=C`, for which the LD50 is 250 mg/kg.

`CCCCCOC(C[n+]1ccccc1)c1ccc(C(C)C)cc1` (stereo not given): the LD50 is 250 mg/kg.

For `Cc1ccc2c(c1)C(N1CCN(C)CC1)=Nc1ccccc1S2`, the LD50 was 934 mg/kg.

With `CNC(=O)Oc1ccccc1C1OCCCO1`, the median lethal dose (LD50) was 142 mg/kg.

For the compound `CC1=C2C(=O)O[C@@H](c3ccoc3)[C@]2(C)CCC1`, the LD50 was 274 mg/kg.

In the case of `N#CC(Cl)(Cl)Cl`, the 50% lethal dose (LD50) is 250 mg/kg.

Turning to `Cc1cc(Cl)ccc1N=CN(C)C`, the LD50 is 160 mg/kg.

Take `O=C(O)C1=CC(=C(c2ccc(O)c(C(=O)O)c2)c2ccc(O)c(C(=O)O)c2)C=CC1=O`: the median lethal dose (LD50) is 9000 mg/kg.

In the case of `CCOCC(=O)Nc1ccc(C(=O)c2ccccc2)cc1C`, the LD50 is 2280 mg/kg.

Take `C=CC=NNc1ccccc1`: the 50% lethal dose (LD50) is 700 mg/kg.

As to `COc1ccc([N+](=O)[O-])cc1CNCCCl`, the LD50 is 28 mg/kg.

Regarding `CCCCCCCCc1ccc(-c2ccccc2)cc1`, the LD50 is 2400 mg/kg.

As for `CCOC(=O)C(Br)CBr` (stereo not given), the LD50 is 240 mg/kg.

On to `CCOC(C1=NCCCN1)c1cccc(Cl)c1` (stereo not given), for which the LD50 was 695 mg/kg.

On to `Cc1noc(NS(=O)(=O)c2ccc(N)cc2)c1C`, for which the LD50 was 10000 mg/kg.

`CNCC(O)c1ccc(OC(=O)C(C)(C)C)c(OC(=O)C(C)(C)C)c1` (stereo not given): the LD50 is 183 mg/kg.

Take `c1ccc2c(c1)Cc1ccccc1N2`: the LD50 was 2140 mg/kg.

Take `CNC(=O)ON=C1CCCC1(C)[N+](=O)[O-]` (stereo not given): the LD50 is 4 mg/kg.

Consider `CC(=O)Nc1ccc(OCC(O)CNC(C)C)cc1` (stereo not given), for which the LD50 was 3460 mg/kg.

For `CC1CCC=C2N(C)C=C(C(=N)O)C(=O)N21` (stereo not given), the LD50 was 750 mg/kg.

With `CCCCOC(=O)C(Cl)(Cl)C(Cl)=C(Cl)Cl`, the LD50 is 2090 mg/kg.

In the case of `Cc1ccccc1C(=O)NC1=NCCS1`, the LD50 is 912 mg/kg.

In the case of `CC(C)CCCC(C)N` (stereo not given), the LD50 was 538 mg/kg.

As for `CN(C)C(=O)OC1=CC(=O)CC(C)(C)C1`, the 50% lethal dose (LD50) is 120 mg/kg.

Regarding `COP(=S)(OC)Sc1ccc(Cl)cc1`, the LD50 was 500 mg/kg.

In the case of `CC(=O)OCc1ccc2c(c1)OCO2`, the LD50 was 2100 mg/kg.

As to `CCOc1cc2c(cc1OCC)C1CC(=O)C(CCC#N)CN1CC2` (stereo not given), the LD50 is 780 mg/kg.

Take `C=C(C)C(=O)OCC1CCC2OC2C1` (stereo not given): the LD50 is 2500 mg/kg.

Regarding `OCC(Cl)C(Cl)CO` (stereo not given), the LD50 is 2830 mg/kg.

With `O=C(CN1CC1)NCCCCCCCCNC(=O)CN1CC1`, the LD50 was 225 mg/kg.

As for `CN(N=O)c1ccc(N=O)cc1`, the LD50 is 1370 mg/kg.

`CC(=O)OC(C)(C)Cc1ccccc1`: the LD50 is 3300 mg/kg.

Consider `CC=CC(=O)OCC`, for which the LD50 is 3000 mg/kg.

`O=C(CS(=O)Cc1ccco1)NC/C=C\COc1cc(CN2CCCCC2)ccn1` (stereo not given): the LD50 is 1250 mg/kg.

As to `N#CC(OC1OC(COC2OC(CO)C(O)C(O)C2O)C(O)C(O)C1O)c1ccccc1` (stereo not given), the LD50 is 517 mg/kg.

`O=C(NC1CCN(CCc2c[nH]c3ccccc23)CC1)c1ccccc1`: the LD50 is 1800 mg/kg.

For `Brc1nc(Br)c(Br)[nH]1`, the LD50 was 34 mg/kg.

`CC1NC(=O)c2cc(N)ccc2O1` (stereo not given): the median lethal dose (LD50) was 1420 mg/kg.

For the compound `CCOP(=S)(OCC)OCCS(=O)(=O)CC`, the LD50 is 90 mg/kg.

For the compound `CCOC(=O)C(NCCNC(C(=O)OCC)c1ccccc1O)c1ccccc1O` (stereo not given), the LD50 is 800 mg/kg.

For the compound `CC(C)(C)c1cc(C2C(=O)c3ccccc3C2=O)cc(C(C)(C)C)c1`, the median lethal dose (LD50) is 194 mg/kg.

On to `CCCCNCCO`, for which the LD50 was 1150 mg/kg.

As to `CC(C)COC(=O)C(C)Oc1ccc(Oc2ccc(Cl)cc2)cc1` (stereo not given), the LD50 is 723 mg/kg.

Turning to `CC(C)COC(=O)c1ccccc1`, the LD50 was 5600 mg/kg.

With `CCC1OC(C)SC1=NOC(=O)NC` (stereo not given), the LD50 is 15 mg/kg.

Take `FC(F)(F)c1ccccc1`: the LD50 was 15000 mg/kg.

Consider `FC(F)(F)c1nc2c(Cl)c(Cl)ccc2[nH]1`, for which the LD50 was 13.1 mg/kg.

Turning to `CCOC(=O)CN(C)N=O`, the LD50 was 4000 mg/kg.

In the case of `CC(=O)Oc1c(C(C)(C)C)cc([N+](=O)[O-])c(C)c1[N+](=O)[O-]`, the median lethal dose (LD50) is 42 mg/kg.

Take `CCCCC(CC)(C(=O)OCC)C(=O)OCCN(CC)CC` (stereo not given): the LD50 was 638 mg/kg.

For `Cc1ccc2c(c1)c1c3n2CCNC3CCC1` (stereo not given), the LD50 is 2060 mg/kg.

Take `CCOP(=S)(OCC)Oc1cc(C)n(CC)c(=O)c1`: the LD50 is 7070 mg/kg.

For the compound `OC(CCl)CNCCNCC(O)CCl` (stereo not given), the LD50 is 1000 mg/kg.

As for `CCN(CC)CCOC(=O)c1cccnc1`, the 50% lethal dose (LD50) is 8400 mg/kg.

As to `CCCC(N)(CCC)CCC`, the LD50 was 135 mg/kg.
